Experimental findings from patent US8193203B2, “Bicyclic compounds having activity at the CXCR4 receptor” (Allergan, Inc., priority 2008, dated 2012) are described below.

Structures are written as SMILES.

The experiment has as its target T1, human CXCR4 receptor (Homo sapiens, UniProt P61073).
T1 construct: expressed in transfected cells
The experiment can be described thus: Measurement of intracellular Ca+2 responses (FLIPR), antagonism of the SDF-1α response. The experiment is classed as cell-based. The note with it: for IC50: HEK-Gqi5 cells stably expressing human CXCR4, Fluo-4 FLIPR, antagonism of SDF-1α 1.9 nM (EC65); for CXCR4 (% Inh): percent antagonism of SDF-1α 1.9 nM (EC65) response, HEK-Gqi5 human CXCR4 cells, value in brackets. Here is the method: Measurement of Intracellular Ca^+2 Responses for CXCR4 Compounds
HEK-Gqi5 cells stably expressing the human CXCR4 receptor were utilized for these studies. The growth media for the CXCR4 receptor expressing cell line was DMEM high glucose medium supplemented with 10% fetal bovine serum (FBS), 1% antibiotic-antimycotic, 50 ug/ml hygromycin B, and 400 μg/ml geneticin. Ten thousand cells per well were plated into 384-well poly-D-lysine coated plates one day prior to use. On the day of the experiment, the cells were washed twice with Hank's Balanced Salt Solution supplemented with 20 mM hepes (HBSS/hepes buffer). The cells were then dye loaded with 2 uM Fluo-4 diluted in the HBSS/Hepes buffer and incubated at 37° C. for 40 minutes. Extracellular dye was removed by washing the cell plates four times prior to placing the plates in the FLIPR (Fluorometric Imaging Plate Reader, Molecular Devices). Ligands were diluted in HBSS/Hepes buffer and prepared in 384-well microplates. The positive control, stromal-cell derived factor-1 (SDF-1α), was diluted in HBSS/Hepes buffer with 4 mg/ml fatty acid free bovine serum albumin. Two drug additions were made by the FLIPR. The first drug addition was the test drug in concentrations ranging from 2.44 nM to 40,000 nM. After this addition, fluorescent measurements were taken. Any calcium release in response to this drug addition represents agonist activity of the compounds. The second drug addition was SDF-1α at a final concentration of 1.9 nM (EC65). Fluorescence measurements were also taken after this second drug addition and were used to determine the ability of the test compounds to antagonize the SDF-1α response. Results were expressed as EC50 and efficacy values, as well as IC50 and percent antagonism values. As controls, SDF-1α (CXCR4 agonist) and AMD3100 (CXCR4 antagonist) dose-response curves were also determined in each study.

T1 sequence (P61073 whole entry): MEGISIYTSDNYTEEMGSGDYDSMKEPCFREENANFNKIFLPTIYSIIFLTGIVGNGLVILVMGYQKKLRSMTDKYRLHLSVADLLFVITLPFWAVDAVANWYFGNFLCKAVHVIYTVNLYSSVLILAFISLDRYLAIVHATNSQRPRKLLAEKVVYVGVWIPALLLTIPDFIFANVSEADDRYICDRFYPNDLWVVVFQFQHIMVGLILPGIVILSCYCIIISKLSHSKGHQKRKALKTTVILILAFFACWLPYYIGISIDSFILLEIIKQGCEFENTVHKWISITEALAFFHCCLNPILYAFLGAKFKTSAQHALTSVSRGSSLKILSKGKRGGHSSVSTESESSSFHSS

As for `COc1cc2nc(NCCN(C)C)nc(NC3CCN(Cc4c(OCCN(C)C)cccc4N(C)C)CC3)c2cc1OC` [Compound 229, N4-(1-(2-(Dimethylamino)-6-(2-(dimethylamino)ethoxy)benzyl)piperidin-4-yl)-N2-(2-(dimethylamino)ethyl)-6,7-dimethoxyquinazoline-2,4-diamine], the “CXCR4 (% Inh)” value is on record as 96%. In addition, the concentration for half-maximal inhibition (IC50) (values in nM) was found to be 41 nM.
The matching figures for `COc1cccc(N(C)C)c1CN1CCC(Nc2nc(NCCCO)nc3ccccc23)CC1` [Compound 99, 3-(4-(1-(2-(Dimethylamino)-6-methoxybenzyl)piperidin-4-ylamino)quinazolin-2-ylamino)propan-1-ol]: 100% and 611 nM.
With `COc1cccc(N(C)C)c1CN1CCC(Nc2nc(N3CCN(C(C)=O)CC3)nc3ccccc23)CC1` [Compound 86, 1-(4-(4-(1-(2-(Dimethylamino)-6-methoxybenzyl)piperidin-4-ylamino)quinazolin-2-yl)piperazin-1-yl)ethanone], the “CXCR4 (% Inh)” value is 86%. Besides, for the setting “values given in μM”, the IC50 amounted to 3500 nM.
Turning to `COc1cc2nc(NCCCN(C)C)nc(NC3CCN(Cc4c(OC)cccc4N(C)CCN(C)C)CC3)c2cc1OC` [Compound 157, N˜4˜-[1-(2-{[2-(Dimethylamino)ethyl](methyl)amino}-6-methoxybenzyl)piperidin-4-yl]-N˜2˜-[3-(dimethylamino)propyl]-6,7-dimethoxyquinazoline-2,4-diamine], the “CXCR4 (% Inh)” value is on record as 94%. This compound also came in with an IC50 (values in nM) of 411 nM.
Take `COc1cccc(N(C)C)c1CN1CCC(Nc2nc(NCC3CN(C(=O)OC(C)(C)C)C3)nc3ccccc23)CC1` [Compound 108, tert-Butyl 3-((4-(1-(2-(Dimethylamino)-6-methoxybenzyl)piperidin-4-ylamino)quinazolin-2-ylamino)methyl)azetidine-1-carboxylate]: the “CXCR4 (% Inh)” value worked out at 89%. Where the note is “values given in μM”, this compound came in with an IC50 of 2000 nM.
The matching figures for `COc1cccc(N(C)C)c1CN1CCC(Nc2nc(NCCCn3ccnc3)nc3ccccc23)CC1` [Compound 120, N2-(3-(1H-Imidazol-1-yl)propyl)-N4-(1-(2-(dimethylamino)-6-methoxybenzyl)piperidin-4-yl)quinazoline-2,4-diamine]: 95% and 1700 nM.
For the compound `COc1cccc(N(C)C)c1CN1CCC(Nc2nc(NCCCN)nc3ccccc23)CC1` [Compound 80, N˜2˜-(3-Aminopropyl)-N˜4˜-{1-[2-(dimethylamino)-6-methoxybenzyl]piperidin-4-yl}quinazoline-2,4-diamine], the “CXCR4 (% Inh)” value was found to be 94%. The concentration for half-maximal inhibition (IC50) (values in nM) was 130 nM.
The matching figures for `COc1cc2nc(NCc3ncc[nH]3)nc(NC3CCN(Cc4c(OCCN(C)C)cccc4N(C)C)CC3)c2cc1OC` [Compound 213, N˜4˜-(1-{2-(Dimethylamino)-6-[2-(dimethylamino)ethoxy]benzyl}piperidin-4-yl)-N˜2˜-(1H-imidazol-2-ylmethyl)-6,7-dimethoxyquinazoline-2,4-diamine]: 100% and 30 nM.
`COc1cccc(N(C)C)c1CN1CCC(Nc2nc(N3CC(CN(C)C(=O)OC(C)(C)C)C3)nc3ccccc23)CC1` [Compound 103, tert-Butyl (1-(4-(1-(2-(Dimethylamino)-6-methoxybenzyl)piperidin-4-ylamino)quinazolin-2-yl)azetidin-3-yl)methyl(methyl)carbamate]: the “CXCR4 (% Inh)” value came to 82%. Where the note is “values given in μM”, this compound returned a half-maximal inhibitory concentration (IC50) of 4100 nM.
With `COc1cccc(N(C)C)c1CN1CCC(Nc2nc(NCCCNC(=O)OC(C)(C)C)nc3ccccc23)CC1` [Compound 225, tert-Butyl-3-(4-(1-(2-(dimethylamino)-6-methoxybenzyl)piperidin-4-ylamino)quinazolin-2-ylamino)propylcarbamate], the “CXCR4 (% Inh)” value was determined as 88%. Under “values in nM”, the half-inhibitory concentration (IC50) was determined as 614 nM.
The matching figures for `COc1cccc(N(C)C)c1CN1CCC(Nc2nc(NCC3CCCO3)nc3ccccc23)CC1` (stereo not shown) [Compound 98, N4-(1-(2-(Dimethylamino)-6-methoxybenzyl)piperidin-4-yl)-N2-((tetrahydrofuran-2-yl)methyl)quinazoline-2,4-diamine]: 98% and 624 nM.
The matching figures for `COc1cc2nc(NCCO)nc(NC3CCN(Cc4c(OCCN(C)C)cccc4N(C)C)CC3)c2cc1OC` [Compound 208, 2-({4-[(1-{2-(Dimethylamino)-6-[2-(dimethylamino)ethoxy]benzyl}piperidin-4-yl)amino]-6,7-dimethoxyquinazolin-2-yl}amino)ethanol]: 98% and 169 nM.
The matching figures for `COc1cccc(N(C)C)c1CN1CCC(Nc2nc(NCC[C@@H]3CCCN3)nc3ccccc23)CC1` [Compound 115, (S)—N-4-(1-(2-(Dimethylamino)-6-methoxybenzyl)piperidin-4-yl)-N2-(2-(pyrrolidin-2-yl)ethyl)quinazoline-2,4-diamine]: 95% and 234 nM.
Turning to `CCN(CC)CCCNc1nc(NC2CCN(Cc3ccccc3N3CCCCC3)CC2)c2cc(OC)c(OC)cc2n1` [Compound 50], the “CXCR4 (% Inh)” value stood at 86%. For the setting “values given in μM”, this compound yielded an IC50 of 6700 nM.
`COc1cc2nc(NC[C@@H](O)CO)nc(NC3CCN(Cc4c(OCCN(C)C)cccc4N(C)C)CC3)c2cc1OC` [Compound 194, 3-({4-[(1-{2-(Dimethylamino)-6-[2-(dimethylamino)ethoxy]benzyl}piperidin-4-yl)amino]-6,7-dimethoxyquinazolin-2-yl}amino)propane-1,2-diol]: the “CXCR4 (% Inh)” value came out at 96%. Moreover, where the note is “values in nM”, inhibition was half-maximal at 74 nM (IC50).
In the case of `COc1cc2nc(NCc3ncco3)nc(NC3CCN(Cc4c(OCCN(C)C)cccc4N(C)C)CC3)c2cc1OC` [Compound 204, N˜4˜-(1-{2-(Dimethylamino)-6-[2-(dimethylamino)ethoxy]benzyl}piperidin-4-yl)-6,7-dimethoxy-N2(1,3-oxazol-2-ylmethyl)quinazoline-2,4-diamine], the “CXCR4 (% Inh)” value amounted to 92%. Also, the concentration for half-maximal inhibition (IC50) (values in nM) is 47 nM.
For `COc1cc2nc(NCc3c[nH]cn3)nc(NC3CCN(Cc4c(OCCN(C)C)cccc4N(C)C)CC3)c2cc1OC` [Compound 206, N˜4˜-(1-{2-(Dimethylamino)-6-[2-(dimethylamino)ethoxy]benzyl}piperidin-4-yl)-N˜2˜-(1H-imidazol-4-ylmethyl)-6,7-dimethoxyquinazoline-2,4-diamine], in that order: 96% and 16 nM.
For `COc1cc2nc(NC[C@H](O)CO)nc(NC3CCN(Cc4c(OCCN(C)C)cccc4N(C)C)CC3)c2cc1OC` [Compound 195, 3-({4-[(1-{2-(Dimethylamino)-6-[2-(dimethylamino)ethoxy]benzyl}piperidin-4-yl)amino]-6,7-dimethoxyquinazolin-2-yl}amino)propane-1,2-diol], in that order: 98% and 31 nM.
On to `COc1cc2nc(NCCCN(C)C)nc(NCCNCc3c(OC)cccc3N(C)C)c2cc1OC` [Compound 178, N˜4˜-(2-{[2-(Dimethylamino)-6-methoxybenzyl]amino}ethyl)-N˜2˜-[3-(dimethylamino)propyl]-6,7-dimethoxyquinazoline-2,4-diamine], for which the “CXCR4 (% Inh)” value is on record as 49%. The compound further gave an IC50 (values given in μM) greater than 10000 nM.
`CCN(CC)CCCNc1nc(NC2CCN(Cc3c(OC)cccc3N(C)C)CC2)c2cc(OC)c(OC)cc2n1` [Compound 42, N2-(3-(Diethylamino)propyl)-N4-(1-(2-(dimethylamino)-6-methoxybenzyl)piperidin-4-yl)-6,7-dimethoxyquinazoline-2,4-diamine]: the “CXCR4 (% Inh)” value is recorded as 98%. For the setting “values in nM”, this compound came in with an IC50 of 179 nM.
As for `COc1cc2nc(SCCN(C)C)nc(NC3CCN(Cc4c(OCCN(C)C)cccc4N(C)C)CC3)c2cc1OC` [Compound 231, N-(1-(2-(Dimethylamino)-6-(2-(dimethylamino)ethoxy)benzyl)piperidin-4-yl)-2-(2-(dimethylamino)ethylthio)-6,7-dimethoxyquinazolin-4-amine], the “CXCR4 (% Inh)” value is 96%. The compound further had a concentration for half-maximal inhibition (IC50) (values in nM) of 131 nM.
The matching figures for `COc1cccc(N(C)C)c1CN1CCC(Nc2nc(NCC3CCN(C)C3)nc3ccccc23)CC1` (stereo not shown) [Compound 121, N4-(1-(2-(Dimethylamino)-6-methoxybenzyl)piperidin-4-yl)-N2-((1-methylpyrrolidin-3-yl)methyl)quinazoline-2,4-diamine]: 97% and 380 nM.
On to `COc1cccc(N(C)C)c1CN1CCC(Nc2nc(NC[C@H]3CCN(C(=O)OC(C)(C)C)C3)nc3ccccc23)CC1` [Compound 110, (R)-tert-Butyl 3-((4-(1-(2-(Dimethylamino)-6-methoxybenzyl)piperidin-4-ylamino)quinazolin-2-ylamino)methyl)pyrrolidine-1-carboxylate], for which the “CXCR4 (% Inh)” value was 81%. Under “values given in μM”, the IC50 was 2200 nM.

Broadly, the IC50 is the concentration at which inhibition is half-maximal. A high value points to lower potency.
